The text below walks through data of patent publication US20250171423A1, “PHARMACEUTICAL COMPOUNDS FOR THE TREATMENT OF COMPLEMENT MEDIATED DISORDERS” (Achillion Pharmaceuticals, Inc., priority 2020, published 2025).

Where a name gives a salt, the structure may show the parent alone.

This assay concerns the target T1, Human complement C1s enzyme (Homo sapiens, UniProt P09871).
T1 construct: purified from human serum, Complement Technology, Inc; purchased Complement Technology, Inc; host or cells: human serum
T1 sequence (P09871 438-688 limits assumed): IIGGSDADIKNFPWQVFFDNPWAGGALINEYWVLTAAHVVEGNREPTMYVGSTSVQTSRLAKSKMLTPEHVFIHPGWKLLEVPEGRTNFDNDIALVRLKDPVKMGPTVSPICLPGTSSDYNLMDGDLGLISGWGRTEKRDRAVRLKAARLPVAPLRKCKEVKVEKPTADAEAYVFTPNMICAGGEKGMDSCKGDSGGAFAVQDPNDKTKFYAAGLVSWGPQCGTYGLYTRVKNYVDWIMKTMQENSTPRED
T1 sequence (P09871 16-437 partner limits assumed): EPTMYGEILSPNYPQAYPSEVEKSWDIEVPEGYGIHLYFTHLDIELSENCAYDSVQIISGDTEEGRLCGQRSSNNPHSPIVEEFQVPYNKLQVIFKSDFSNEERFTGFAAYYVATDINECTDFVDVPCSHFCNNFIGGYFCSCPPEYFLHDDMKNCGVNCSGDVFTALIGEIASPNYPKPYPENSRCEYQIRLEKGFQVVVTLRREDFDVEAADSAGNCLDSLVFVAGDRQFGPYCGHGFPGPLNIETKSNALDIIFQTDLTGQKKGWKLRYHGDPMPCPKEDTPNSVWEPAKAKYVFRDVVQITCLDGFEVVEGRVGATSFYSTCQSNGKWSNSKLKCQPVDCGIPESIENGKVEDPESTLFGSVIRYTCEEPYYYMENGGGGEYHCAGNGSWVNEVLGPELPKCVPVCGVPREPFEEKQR
The assay can be described thus: Human C1s Enzyme Assay. The class given is biochemical. Conditions: human C1s 1.16 nM, 5 min preincubation, substrate Z-L-Lys-SBzl 100 μM, A405; read-out: C1s Protease Activity. The method, boiled down: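 IC50 values were fitted by nonlinear regression to rates measured as A405 every 30 s for 30 min. The thioester substrate Z-L-Lys-SBzl and Ellman's reagent were each at 100 μM. Serum-derived C1s at 1.16 nM final had 5 min of room-temperature preincubation with compound (pH 7.5 Tris buffer, 1 M NaCl).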

On to `C[C@@]12C[C@@H]1N(C(=O)CNC(=O)c1ccc(Oc3ccccc3)cc1)[C@H](C(=O)OCc1cc(C(=N)N)cs1)C2` [Compound 89, (1S,3S,5S)-(4-carbamimidoylthiophen-2-yl)methyl 5-methyl-2-((4-phenoxybenzoyl)glycyl)-2-azabicyclo[3.1.0]hexane-3-carboxylate], for which the IC50 was under 100 nM. With `N=C(N)c1csc(CNC(=O)[C@@H]2C[C@H](OC(F)F)CN2C(=O)CNC(=O)c2ccc(Oc3ccccc3)cc2)c1` [Compound 36, (2S,4S)-N-((4-carbamimidoylthiophen-2-yl)methyl)-4-(difluoromethoxy)-1-((4-phenoxybenzoyl)glycyl)pyrrolidine-2-carboxamide], the IC50 is under 100 nM.

Regarding `C[C@@]12C[C@@H]1N(C(=O)CNC(=O)c1ccc(Oc3ccccc3)cc1)[C@H](C(=O)NCc1cc(S(C)(=N)=O)cs1)C2` (stereo partly drawn) [Compound 23, (1S,3S,5S)-5-methyl-N-((4-(S-methylsulfonimidoyl)thiophen-2-yl)methyl)-2-((4-phenoxybenzoyl)glycyl)-2-azabicyclo[3.1.0]hexane-3-carboxamide], the IC50 is over 1000 nM. The value for `N=C(N)c1csc(CNC(=O)[C@@H]2C[C@@H](OC3CC3)CN2C(=O)CNC(=O)c2ccc(Oc3ccccc3)cc2)c1` [Compound 110, (2S,4R)-N-((4-carbamimidoylthiophen-2-yl)methyl)-4-cyclopropoxy-1-((4-phenoxy-benzoyl)glycyl)pyrrolidine-2-carboxamide] was under 100 nM; that for `C[C@@H](NC(=O)[C@@H]1C[C@](F)(CF)CN1C(=O)CNC(=O)CCCOc1ccc(F)cc1)c1cc(C(=N)N)cs1` [Compound 99, (2S,4R)-N-[(1R)-1-(4-carbamimidoylthiophen-2-yl)ethyl]-4-fluoro-4-(fluoromethyl)-1-{2-[4-(4-fluorophenoxy)butanamido]acetyl}pyrrolidine-2-carboxamide] was under 100 nM.

Take `N=C(N)c1csc([C@H](NC(=O)[C@@H]2C[C@@H](OC(F)F)CN2C(=O)CNC(=O)c2ccc(Oc3ccccc3)cc2)C2CCCC2)c1` [Compound 193, (2S,4R)-N-((R)-(4-carbamimidoylthiophen-2-yl)(cyclopentyl)methyl)-4-(difluoromethoxy)-1-((4-phenoxybenzoyl)glycyl)pyrrolidine-2-carboxamide]: the IC50 was over 1000 nM. The value for `C[C@@H](C(=O)NCc1cc(C(=N)N)cs1)N(C)C(=O)CNC(=O)c1ccc(Oc2ccccc2)cc1` [Compound 126, (S)-N-(2-((1-(((4-carbamimidoylthiophen-2-yl)methyl)amino)-1-oxopropan-2-yl)(methyl)amino)-2-oxoethyl)-4-phenoxybenzamide] was under 100 nM; that for `COC[C@@]1(F)C[C@@H](C(=O)NCc2cc(C(=N)N)cs2)N(C(=O)CNC(=O)CCCOc2ccccc2)C1` [Compound 72, (2S,4R)-N-((4-carbamimidoylthiophen-2-yl)methyl)-4-fluoro-4-(methoxymethyl)-1-((4-phenoxybutanoyl)glycyl)pyrrolidine-2-carboxamide] was under 100 nM; that for `C[C@@H](NC(=O)[C@@H]1C[C@@]2(CN1C(=O)CNC(=O)CCCOc1ccccc1)CC2(F)F)c1cc(C(=N)N)cs1` [Compound 105, (3S,6S)-N-((R)-1-(4-carbamimidoylthiophen-2-yl)ethyl)-1,1-difluoro-5-((4-phenoxy-butanoyl)glycyl)-5-azaspiro[2.4]heptane-6-carboxamide] was 100 to 1000 nM. Consider `COc1cccc(CNC(=O)[C@@H]2C[C@]3(C)C[C@@H]3N2C(=O)CNC(=O)c2ccc(Oc3ccccc3)cc2)c1` [Compound 42, (1S,3S,5S)-N-(3-methoxybenzyl)-5-methyl-2-((4-phenoxybenzoyl)-glycyl)-2-azabicyclo[3.1.0]hexane-3-carboxamide], for which the IC50 is over 1000 nM. For `Cc1sc(CNC(=O)[C@@H]2C[C@]3(C)C[C@@H]3N2C(=O)CNC(=O)c2ccc(Oc3ccccc3)cc2)cc1C(=N)N` [Compound 204, (1S,3S,5S)-N-((4-carbamimidoyl-5-methylthiophen-2-yl)methyl)-5-methyl-2-((4-phenoxybenzoyl)glycyl)-2-azabicyclo[3.1.0]hexane-3-carboxamide], the IC50 was over 1000 nM. Under `Cc1ccc(OCCCC(=O)NCC(=O)N2CC3(C[C@H]2C(=O)NCc2cc(C(=N)N)cs2)OCCO3)cc1` [Compound 64, (S)-N-((4-carbamimidoylthiophen-2-yl)methyl)-7-((4-(p-tolyloxy)butanoyl)glycyl)-1,4-dioxa-7-azaspiro[4.4]nonane-8-carboxamide] stands under 100 nM.

For the compound `C[C@@H](NC(=O)[C@@H]1C[C@]2(C)C[C@@H]2N1C(=O)CNC(=O)CCCCc1ccccc1)c1cc(C(=N)N)cs1` [Compound 130, (1S,3S,5S)-N-((R)-1-(4-carbamimidoylthiophen-2-yl)ethyl)-5-methyl-2-((5-phenyl-pentanoyl)glycyl)-2-azabicyclo[3.1.0]hexane-3-carboxamide], the IC50 is under 100 nM. For the compound `C[C@@]12C[C@@H]1N(C(=O)CNC(=O)c1ccc3c(c1)-c1ccccc1C3(F)F)[C@H](C(=O)NCc1cc(C(=N)N)cs1)C2` [Compound 103, (1S,3S,5S)-N-((4-carbamimidoylthiophen-2-yl)methyl)-2-((9,9-difluoro-9H-fluorene-3-carbonyl)glycyl)-5-methyl-2-azabicyclo[3.1.0]hexane-3-carboxamide], the IC50 is under 100 nM. On to `N=C(N)c1csc(CNC(=O)[C@@H]2CC3(CN2C(=O)CNC(=O)CCCOc2ccc(F)cc2)OCCO3)c1` [Compound 65, (S)-N-((4-carbamimidoylthiophen-2-yl)methyl)-7-((4-(4-fluorophenoxy)butanoyl)glycyl)-1,4-dioxa-7-azaspiro[4.4]nonane-8-carboxamide], for which the IC50 is under 100 nM.

As to `C[C@@H](NC(=O)[C@@H]1C[C@@H](S(C)(=O)=O)CN1C(=O)CNC(=O)c1ccc(Oc2ccccc2)cc1)c1cc(C(=N)N)cs1` [Compound 192, (2S,4R)-N-((R)-1-(4-carbamimidoylthiophen-2-yl)ethyl)-4-(methylsulfonyl)-1-((4-phenoxybenzoyl)glycyl)pyrrolidine-2-carboxamide], the IC50 was under 100 nM. With `C[C@@]12C[C@@H]1N(C(=O)CNC(=O)c1ccc(Oc3ccccc3)cc1)[C@H](C(=O)NCc1nc(C(=N)N)cs1)C2` [Compound 2, (1S,3S,5S)-N-((4-carbamimidoylthiazol-2-yl)methyl)-5-methyl-2-((4-phenoxy-benzoyl)glycyl)-2-azabicyclo[3.1.0]hexane-3-carboxamide], the IC50 was under 100 nM. Under `N=C(N)c1csc([C@@H](Cc2ccccc2)NC(=O)[C@@H]2CC3(CN2C(=O)CNC(=O)CCCOc2ccccc2)OCCO3)c1` [Compound 176, (S)-N-((R)-1-(4-carbamimidoylthiophen-2-yl)-2-phenylethyl)-7-((4-phenoxybutanoyl)glycyl)-1,4-dioxa-7-azaspiro[4.4]nonane-8-carboxamide] stands over 1000 nM. Turning to `C[C@@]12C[C@@H]1N(C(=O)CN1Cc3ccc(Oc4ccccc4)cc3C1=O)[C@H](C(=O)NCc1cc(C(=N)N)cs1)C2` [Compound 144, (1S,3S,5S)-N-[(4-carbamimidoylthiophen-2-yl)methyl]-5-methyl-2-[2-(1-oxo-6-phenoxy-3H-isoindol-2-yl)acetyl]-2-azabicyclo[3.1.0]hexane-3-carboxamide], the IC50 was under 100 nM. As to `C[C@H](O)[C@H](O)[C@@H](O)[C@@H](O)CNCC(=O)N1[C@H]2C[C@@]2(C)C[C@H]1C(=O)NCc1cc(C(=N)N)cs1` [Compound 24, (1S,3S,5S)-N-((4-carbamimidoylthiophen-2-yl)methyl)-5-methyl-2-(((2S,3S,4S,5S)-2,3,4,5-tetrahydroxyhexyl)glycyl)-2-azabicyclo[3.1.0]hexane-3-carboxamide hydrochloride], the IC50 was over 1000 nM.

As for `C[C@@H](NC(=O)[C@@H]1CC2(CN1C(=O)CNC(=O)CCCOc1ccccc1)OCCO2)c1ccc(C(=N)N)s1` [Compound 133, (S)-N-((R)-1-(5-carbamimidoylthiophen-2-yl)ethyl)-7-((4-phenoxybutanoyl)glycyl)-1,4-dioxa-7-azaspiro[4.4]nonane-8-carboxamide], the IC50 was under 100 nM. On to `CC(=O)NCCOC[C@@]12C[C@@H]1N(C(=O)CNC(=O)CCCOc1ccccc1)[C@H](C(=O)N[C@H](C)c1cc(C(=N)N)cs1)C2` [Compound 142, (1S,3S,5R)-5-((2-acetamidoethoxy)methyl)-N-((R)-1-(4-carbamimidoylthiophen-2-yl)ethyl)-2-((4-phenoxybutanoyl)glycyl)-2-azabicyclo[3.1.0]hexane-3-carboxamide], for which the IC50 is 100 to 1000 nM.

On to `C[C@@H](NC(=O)[C@@H]1C[C@@H](OC(F)F)CN1C(=O)CNC(=O)c1ccc(Oc2ccccc2)cc1)c1cc(C(=N)N)cs1` [Compound 172, (2S,4R)-N-((R)-1-(4-carbamimidoylthiophen-2-yl)ethyl)-4-(difluoromethoxy)-1-((4-phenoxybenzoyl)glycyl)pyrrolidine-2-carboxamide], for which the IC50 is under 100 nM.
